Experiments:
Pyrenophora teres = test: In vivo preventive test on Pyrenophora teres (net blotch on barley); conditions: dose 500 ppm; barley plants sprayed 24 h before contamination; grading 14 days after contamination
Description: Barley plants (“Plaisant” variety), sown in starter cups on a 50/50 peat soil-pozzolana substrate and grown at 22° C., are treated at the 1-leaf stage (10 cm height) by spraying with the active ingredient prepared as described above. Plants, used as controls, are treated with the mixture of acetone/tween/DMSO/water not containing the active material. After 24 hours, the plants are contaminated by spraying the leaves with an aqueous suspension of Pyrenophora teres spores (12 000 spores per ml). The spores are collected from a 12-day-old culture. […] Grading (% of efficacy) is carried out 14 days after the contamination, in comparison with the control plants.

Puccinia recondita = test: In vivo preventive test on Puccinia recondita (brown rust on wheat); conditions: wheat plants sprayed 24 h before contamination, grading 12 days after contamination
Description: Plants, used as controls, are treated with the mixture of acetone/tween/DMSO/water not containing the active material. After 24 hours, the plants are contaminated by spraying the leaves with an aqueous suspension of Puccinia recondita spores (100 000 spores per ml). […] Grading (% of efficacy) is carried out 12 days after the contamination, in comparison with the control plants.

Uromyces appendiculatus = test: In vivo preventive test on Uromyces appendiculatus (bean rust); conditions: bean plants sprayed 24 h before contamination, grading 11 days after contamination
Description: Bean plants (“Saxa” variety), sown in starter cups on a 50/50 peat soil-pozzolana substrate and grown at 24° C., are treated at the 2-leaf stage (9 cm height) by spraying with the active ingredient prepared as described above. Plants, used as controls, are treated with the mixture of acetone/tween/DMSO/water not containing the active material. After 24 hours, the plants are contaminated by spraying the leaves with an aqueous suspension of Uromyces appendiculatus spores (150 000 spores per ml). […] Grading (% of efficacy) is carried out 11 days after the contamination, in comparison with the control plants.

[1] = Measurement of log P values by HPLC on reversed phase columns (EEC directive 79/831 Annex V.A8); type: physicochemical
Sphaerotheca fuliginea = test: In vivo preventive test on Sphaerotheca fuliginea (powdery mildew on cucurbits); conditions: dose 500 ppm; gherkin plants sprayed 24 h before contamination; grading 12 days after contamination
Description: Gherkin plants (“Vert petit de Paris” variety), sown in starter cups on a 50/50 peat soil-pozzolana substrate and grown at 24° C., are treated at the Z11 cotyledon stage by spraying with the active ingredient prepared as described above. Plants, used as controls, are treated with the mixture of acetone/tween/DMSO/water not containing the active material. After 24 hours, the plants are contaminated by spraying the cotyledons with an aqueous suspension of Sphaerotheca fuliginea spores (100 000 spores per ml). The spores are collected from infected plants. The contaminated to gherkin plants are incubated at about 20° C. and at 70-80% relative humidity. Grading (% of efficacy) is carried out 12 days after the contamination, in comparison with the control plants.

logP ([1]; method marked [a]) | logP ([1]; method marked [b]) | SMILES | Eff. % (Pyrenophora teres) [%] | Eff. % (Puccinia recondita; dose 500 ppm) [%] | Eff. % (Uromyces appendiculatus; dose 500 ppm) [%] | Eff. % (Sphaerotheca fuliginea) [%] | Eff. % (Puccinia recondita; dose 100 ppm) [%] | Eff. % (Uromyces appendiculatus; dose 100 ppm) [%]
4.31[a] | – | CCC1(C)CCc2c(NC(=O)c3c(C(F)F)nn(C)c3Cl)cccc21 (single isomer, unassigned) [Example 52] | 80 | 98 | 100 | – | – | –
3.31[a] | – | CC1Cc2cccc(NC(=O)c3c(C(F)F)nn(C)c3F)c2C1 (stereo not drawn) [Example 7] | – | 98 | 100 | 78 | – | –
4.44[a] | – | Cn1nc(C(F)F)c(C(=O)Nc2cccc3c2CC2(CCCC2)C3)c1Cl [Example 15] | 71 | 100 | 100 | – | – | –
4.91[a]; | 4.89[b] | CC1CC(C)(C)c2c(I)ccc(NC(=O)c3c(C(F)F)nn(C)c3Cl)c21 (stereo not drawn) [Example 20] | 97 | 98 | 99 | – | – | –
4.69[a] | – | CC(C)C1Cc2c(NC(=O)c3c(C(F)F)nn(C)c3Cl)cccc2C1C (stereo not drawn) [Example 21] | – | 98 | 100 | 89 | – | –
4.77[a]; | 4.68[b] | CC1CC(C)(C)c2c(Br)ccc(NC(=O)c3c(C(F)F)nn(C)c3Cl)c21 (stereo not drawn) [Example 36] | 75 | – | 77 | – | – | –
4.03[a] | – | CC1CC(C)(C)c2cccc(NC(=O)c3c(C(F)F)nn(C)c3Br)c21 (stereo not drawn) [Example 42] | – | 100 | 100 | 100 | – | –
4.64[a]; | 4.49[b] | CC1CC(C)(C)c2c(Br)ccc(NC(=S)c3c(C(F)F)nn(C)c3F)c21 (stereo not drawn) [Example 55] | 75 | 94 | 70 | – | – | –
5.03[a] | – | Cn1nc(C(F)F)c(C(=O)Nc2cccc3c2CC(C2CCCC2)C3)c1Cl (stereo not drawn) [Example 57] | 97 | 94 | 100 | – | – | –
4.64[a] | – | Cn1nc(C(F)F)c(C(=S)Nc2cccc3c2CCC3C(C)(C)C)c1Cl (stereo not drawn) [Example 74] | – | 100 | 100 | 98 | – | –
4.98[a] | – | CC(C)CC1CC(C)c2c(NC(=O)c3c(C(F)F)nn(C)c3Cl)cccc21 (stereo not drawn) [Example 79] | 92 | 94 | 100 | – | – | –
3.42[a] | – | CCON=C1CC(C)c2c(NC(=O)c3c(C(F)F)nn(C)c3Cl)cccc21 (stereo not drawn) [Example 82] | 75 | 88 | 99 | – | – | –
3.92[a] | – | CCCON=C1CC(C)c2c(NC(=O)c3c(C(F)F)nn(C)c3Cl)cccc21 (stereo not drawn) [Example 84] | 75 | 81 | – | – | – | –
4.2[a] | – | CC1c2c(NC(=O)c3c(C(F)F)nn(C)c3Cl)cccc2C(C)(C)C1C (stereo not drawn) [Example 85] | 92 | 98 | 99 | – | – | –
5.01[a] | – | CC(C)CC1CC(C)c2c(NC(=O)c3c(C(F)F)nn(C)c3Cl)cccc21 (stereo not drawn) [Example 99] | – | – | – | – | 100 | 100
4.87[a] | – | CC(C)C1Cc2c(NC(=S)c3c(C(F)F)nn(C)c3Br)cccc2C1(C)C (stereo not drawn) [Example 102] | – | – | – | – | 94 | 100
5.01[a] | – | CC1CC2(CCCCC2)c2cccc(NC(=S)c3c(C(F)F)nn(C)c3Cl)c21 (stereo not drawn) [Example 108] | – | – | – | – | 90 | 100
3.52[a] | – | CC1CCc2c(NC(=O)c3c(C(F)F)nn(C)c3Cl)cccc21 (stereo not drawn) [Example 109] | – | – | – | – | 94 | 99
5.01[a] | – | CC1CC2(CCCCC2)c2cccc(NC(=O)c3c(C(F)F)nn(C)c3Cl)c21 (stereo not drawn) [Example 110] | – | – | – | – | 83 | 99
4.64[a] | – | CC1CC2(CCCC2)c2cccc(NC(=O)c3c(C(F)F)nn(C)c3Cl)c21 (stereo not drawn) [Example 111] | – | – | – | – | 98 | 100
